Test results reported in the NIST ThermoML archive (doi:10.1021/je3011634).

Experiment: xn = mol fraction of the nth substance listed
Details: 101 kPa, Liquid; for viscosity: Capillary tube (Ostwald / Ubbelohde) method; for mass density: Vibrating tube method

NCCCO [3-amino-1-propanol] + CCCO
Details	mass density, 293.15 K [kg/m3]	mass density, 303.15 K [kg/m3]	mass density, 313.15 K [kg/m3]	mass density, 323.15 K [kg/m3]	mass density, 333.15 K [kg/m3]	viscosity, 293.15 K [mPa·s]	viscosity, 303.15 K [mPa·s]	viscosity, 313.15 K [mPa·s]	viscosity, 323.15 K [mPa·s]	viscosity, 333.15 K [mPa·s]
x1 = 0.1088	826.73	818.68	810.49	802.16	793.63	2.978	2.081	1.401	0.999	0.579
x1 = 0.2019	845.91	837.85	829.65	821.33	812.86	4.164	2.839	2.061	1.474	–
x1 = 0.2993	865.53	857.43	849.23	840.93	832.49	5.873	3.89	2.864	2.11	1.266
x1 = 0.4099	886.82	878.7	870.51	862.22	853.84	8.435	5.443	3.97	2.95	1.828
x1 = 0.5002	903.78	895.67	887.49	879.21	870.85	11.26	7.04	5.05	3.657	2.352
x1 = 0.6014	922.34	914.25	906.08	897.8	889.48	15.35	9.477	6.59	4.685	3.105
x1 = 0.6995	939.59	931.51	923.4	915.21	907.01	20.08	12.29	8.276	5.816	3.907
x1 = 0.8091	958.11	950.09	942.03	933.93	925.77	26.44	15.93	10.5	7.232	4.917
x1 = 0.9003	972.64	964.64	956.59	948.49	940.36	32.71	19.52	12.63	8.57	5.829

CC(C)CO [2-methyl-1-propanol] + CC(C)O
Details	mass density, 293.15 K [kg/m3]	mass density, 303.15 K [kg/m3]	mass density, 313.15 K [kg/m3]	mass density, 323.15 K [kg/m3]	mass density, 333.15 K [kg/m3]	viscosity, 293.15 K [mPa·s]	viscosity, 303.15 K [mPa·s]	viscosity, 313.15 K [mPa·s]	viscosity, 323.15 K [mPa·s]	viscosity, 333.15 K [mPa·s]
x1 = 0.1495	788.29	779.93	771.29	762.29	752.87	2.45	1.817	1.259	0.983	0.648
x1 = 0.2001	789.25	780.93	772.34	763.4	754.05	2.498	1.839	1.28	0.999	0.663
x1 = 0.3	791.09	782.85	774.35	765.53	756.31	2.621	1.907	1.331	1.035	0.696
x1 = 0.4249	793.26	785.12	776.74	768.04	758.97	2.81	2.021	1.418	1.095	0.745
x1 = 0.5189	794.8	786.73	778.43	769.83	760.87	2.976	2.131	1.505	1.158	0.794
x1 = 0.6202	796.38	788.38	780.17	771.67	762.82	3.184	2.271	1.617	1.237	0.857
x1 = 0.7166	797.83	789.9	781.76	773.35	764.6	3.395	2.417	1.732	1.32	0.921
x1 = 0.8005	799.06	791.18	783.1	774.76	766.09	3.594	2.547	1.837	1.394	0.979
x1 = 0.9001	800.47	792.65	784.64	776.38	767.81	3.838	2.709	1.963	1.483	1.051

CC(C)CO [2-methyl-1-propanol] + CCCO
Details	mass density, 293.15 K [kg/m3]	mass density, 303.15 K [kg/m3]	mass density, 313.15 K [kg/m3]	mass density, 323.15 K [kg/m3]	mass density, 333.15 K [kg/m3]	viscosity, 293.15 K [mPa·s]	viscosity, 303.15 K [mPa·s]	viscosity, 313.15 K [mPa·s]	viscosity, 323.15 K [mPa·s]	viscosity, 333.15 K [mPa·s]
x1 = 0.1038	803.39	795.39	787.25	778.91	770.34	2.147	1.586	1.079	0.835	0.508
x1 = 0.1962	803.24	795.27	787.16	778.85	770.31	2.269	1.657	1.14	0.88	0.545
x1 = 0.2944	803.09	795.15	787.07	778.79	770.27	2.413	1.744	1.21	0.93	0.588
x1 = 0.4058	802.91	795.01	786.96	778.71	770.2	2.594	1.855	1.297	0.991	0.641
x1 = 0.504	802.75	794.88	786.86	778.62	770.13	2.768	1.967	1.382	1.052	0.693
x1 = 0.6041	802.58	794.74	786.74	778.52	770.04	2.961	2.099	1.487	1.126	0.753
x1 = 0.7019	802.41	794.59	786.61	778.41	769.94	3.172	2.253	1.611	1.217	0.83
x1 = 0.8072	802.21	794.41	786.45	778.26	769.8	3.452	2.448	1.767	1.335	0.928
x1 = 0.8996	–	794.24	786.29	778.11	769.64	–	2.643	1.914	1.446	1.018
